Laboratory results taken from ChEMBL document CHEMBL1132263, “Synthesis of caged peptides using caged lysine: application to the synthesis of caged AIP, a highly specific inhibitor of calmodulin-dependent protein kinase II” (Bioorg Med Chem Lett, 1999).
Where a SMILES comes first, the peptide text is derived from it. The star is where a group is joined. X1 = O=C(OCc1ccccc1[N+](=O)[O-])*; Cbz = O=C(OCc1ccccc1)*

Target: CaM kinase II (Homo sapiens, UniProt Q13557+Q13555+Q13554+Q9UQM7)
Assay: Inhibitory activity of compound against CaMKII
Format: protein assay

SMILES | IC50 [nM]
CC(C)C[C@H](NC(=O)[C@H](C)NC(=O)[C@H](CC(=O)O)NC(=O)[C@@H](NC(=O)[C@H](C)NC(=O)[C@H](CCC(=O)O)NC(=O)[C@H](CCC(N)=O)NC(=O)[C@H](CCCN=C(N)N)NC(=O)[C@H](CCCN=C(N)N)NC(=O)[C@H](CC(C)C)NC(=O)[C@H](C)NC(=O)OCc1ccccc1)C(C)C)C(=O)O (Cbz-ALRRQEAVDAL-OH) | 1000
CC(C)C[C@H](NC(=O)[C@H](C)NC(=O)[C@H](CC(=O)O)NC(=O)[C@@H](NC(=O)[C@H](C)NC(=O)[C@H](CCC(=O)O)NC(=O)[C@H](CCC(N)=O)NC(=O)[C@H](CCCN=C(N)N)NC(=O)[C@H](CCCN=C(N)N)NC(=O)[C@H](CC(C)C)NC(=O)[C@H](C)NC(=O)[C@H](CCCCNC(=O)OCc1ccccc1[N+](=O)[O-])NC(=O)[C@@H](N)CCCCNC(=O)OCc1ccccc1[N+](=O)[O-])C(C)C)C(=O)O (H-K(X1)K(X1)ALRRQEAVDAL-OH) | 1200
CC(C)C[C@H](NC(=O)[C@H](C)NC(=O)[C@H](CC(=O)O)NC(=O)[C@@H](NC(=O)[C@H](C)NC(=O)[C@H](CCC(=O)O)NC(=O)[C@H](CCC(N)=O)NC(=O)[C@H](CCCN=C(N)N)NC(=O)[C@H](CCCN=C(N)N)NC(=O)[C@H](CC(C)C)NC(=O)[C@H](C)NC(=O)[C@H](CCCCN)NC(=O)[C@@H](N)CCCCNC(=O)OCc1ccccc1[N+](=O)[O-])C(C)C)C(=O)O (H-K(X1)KALRRQEAVDAL-OH) | 36
CC(C)C[C@H](NC(=O)[C@H](C)NC(=O)[C@H](CC(=O)O)NC(=O)[C@@H](NC(=O)[C@H](C)NC(=O)[C@H](CCC(=O)O)NC(=O)[C@H](CCC(N)=O)NC(=O)[C@H](CCCN=C(N)N)NC(=O)[C@H](CCCN=C(N)N)NC(=O)[C@H](CC(C)C)NC(=O)[C@H](C)NC(=O)[C@H](CCCCN)NC(=O)[C@@H](N)CCCCN)C(C)C)C(=O)O (H-KKALRRQEAVDAL-OH) | 32
